# Laboratory results: paper PMC8429728, “TNK1 is a ubiquitin-binding and 14-3-3-regulated kinase that can be targeted to block tumor growth” (Nature Communications, 2021)
# Like-named read-outs stand apart in the source and are kept apart here.
# Key:
# Assay in all cases: biochemical
# Design in all cases: Reaction Biology 371-kinase panel at Km ATP, per cent enzyme activity relative to DMSO, single dose in duplicate
# FYN = FYN (Homo sapiens, UniProt P06241); details: duplicate measurements, Km ATP
# Procedure, shortened: (§1)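 Percent kinase activity relative to vehicle (DMSO) is reported for a 371-kinase in vitro panel at 300 nM compound; IC50 values derive from variable-slope sigmoidal fits with the lower plateau fixed at 0.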
# ALK3/BMPR1A = ALK3/BMPR1A (Homo sapiens, UniProt P36894); details: duplicate measurements, Km ATP
# Procedure, shortened: as §1
# MYO3A = MYO3A (Homo sapiens, UniProt Q8NEV4); details: duplicate measurements, Km ATP
# Procedure, shortened: as §1
# EPHA3 = EPHA3 (Homo sapiens, UniProt P29320); details: duplicate measurements, Km ATP
# Procedure, shortened: as §1
# AKT1 = AKT1 (Homo sapiens, UniProt P31749); details: duplicate measurements, Km ATP; read-out: % Enzyme Activity (relative to DMSO controls) / TP-0005801 (0.3µM) / Data 1
# Procedure, shortened: as §1
# ERK1 = molecular target: T1, ERK1 (Homo sapiens, UniProt P27361); details: duplicate measurements, Km ATP
# T1 construct: gene MAPK3
# Procedure, shortened: as §1
# TTBK1 = TTBK1 (Homo sapiens, UniProt Q5TCY1); details: duplicate measurements, Km ATP
# Procedure, shortened: as §1
# ALK4/ACVR1B = ALK4/ACVR1B (Homo sapiens, UniProt P36896); details: duplicate measurements, Km ATP
# Procedure, shortened: as §1
# DMPK2 = molecular target: T2, DMPK2 (Homo sapiens, UniProt Q6DT37); details: duplicate measurements, Km ATP; read-out: % Enzyme Activity (relative to DMSO controls) / TP-0005801 (0.3µM) / Data 1
# T2 construct: gene CDC42BPG
# Procedure, shortened: as §1
# ERK2/MAPK1 = ERK2/MAPK1 (Homo sapiens, UniProt P28482); details: duplicate measurements, Km ATP
# Procedure, shortened: as §1
# MLK1/MAP3K9 = MLK1/MAP3K9 (Homo sapiens, UniProt P80192); details: duplicate measurements, Km ATP
# Procedure, shortened: as §1
# NEK3 = NEK3 (Homo sapiens, UniProt P51956); details: duplicate measurements, Km ATP
# Procedure, shortened: as §1
# CDK2/cyclin A1 = CDK2/cyclin A1 (Homo sapiens, UniProt P24941); details: duplicate measurements, Km ATP
# Procedure, shortened: as §1
# ERBB4/HER4 = ERBB4/HER4 (Homo sapiens, UniProt Q15303); details: duplicate measurements, Km ATP
# Procedure, shortened: as §1
# CDK1/cyclin A = CDK1/cyclin A (Homo sapiens, UniProt P06493); details: duplicate measurements, Km ATP
# Procedure, shortened: as §1
# IKKb/IKBKB = IKKb/IKBKB (Homo sapiens, UniProt O14920); details: duplicate measurements, Km ATP
# Procedure, shortened: as §1
# PKG2/PRKG2 = PKG2/PRKG2 (Homo sapiens, UniProt Q13237); details: duplicate measurements, Km ATP; read-out: % Enzyme Activity (relative to DMSO controls) / TP-0005801 (0.3µM) / Data 1
# Procedure, shortened: as §1
# MLK3/MAP3K11 = MLK3/MAP3K11 (Homo sapiens, UniProt Q16584); details: duplicate measurements, Km ATP
# Procedure, shortened: as §1
# FLT4/VEGFR3 = FLT4/VEGFR3 (Homo sapiens, UniProt P35916); details: duplicate measurements, Km ATP
# Procedure, shortened: as §1
# CDK9/cyclin T1 = CDK9/cyclin T1 (Homo sapiens, UniProt P50750); details: duplicate measurements, Km ATP
# Procedure, shortened: as §1
# [1] = read-out: % Enzyme Activity (relative to DMSO controls) / TP-0005801 (0.3µM) / Data 1
# [2] = read-out: % Enzyme Activity (relative to DMSO controls) / TP-0005801 (0.3µM) / Data 2
# Chain of CDK9/cyclin T1 (P50750 whole entry): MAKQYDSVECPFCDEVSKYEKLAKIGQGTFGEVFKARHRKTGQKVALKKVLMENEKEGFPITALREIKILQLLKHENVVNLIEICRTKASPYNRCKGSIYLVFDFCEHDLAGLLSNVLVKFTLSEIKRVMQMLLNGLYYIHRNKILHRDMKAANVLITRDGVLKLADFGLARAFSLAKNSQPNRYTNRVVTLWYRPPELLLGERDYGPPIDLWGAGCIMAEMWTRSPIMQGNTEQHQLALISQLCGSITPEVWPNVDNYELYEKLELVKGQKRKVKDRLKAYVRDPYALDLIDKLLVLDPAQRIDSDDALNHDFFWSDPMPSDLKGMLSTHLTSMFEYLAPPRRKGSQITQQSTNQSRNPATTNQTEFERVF
# Chain of CDK9/cyclin T1 (O60563 whole entry partner): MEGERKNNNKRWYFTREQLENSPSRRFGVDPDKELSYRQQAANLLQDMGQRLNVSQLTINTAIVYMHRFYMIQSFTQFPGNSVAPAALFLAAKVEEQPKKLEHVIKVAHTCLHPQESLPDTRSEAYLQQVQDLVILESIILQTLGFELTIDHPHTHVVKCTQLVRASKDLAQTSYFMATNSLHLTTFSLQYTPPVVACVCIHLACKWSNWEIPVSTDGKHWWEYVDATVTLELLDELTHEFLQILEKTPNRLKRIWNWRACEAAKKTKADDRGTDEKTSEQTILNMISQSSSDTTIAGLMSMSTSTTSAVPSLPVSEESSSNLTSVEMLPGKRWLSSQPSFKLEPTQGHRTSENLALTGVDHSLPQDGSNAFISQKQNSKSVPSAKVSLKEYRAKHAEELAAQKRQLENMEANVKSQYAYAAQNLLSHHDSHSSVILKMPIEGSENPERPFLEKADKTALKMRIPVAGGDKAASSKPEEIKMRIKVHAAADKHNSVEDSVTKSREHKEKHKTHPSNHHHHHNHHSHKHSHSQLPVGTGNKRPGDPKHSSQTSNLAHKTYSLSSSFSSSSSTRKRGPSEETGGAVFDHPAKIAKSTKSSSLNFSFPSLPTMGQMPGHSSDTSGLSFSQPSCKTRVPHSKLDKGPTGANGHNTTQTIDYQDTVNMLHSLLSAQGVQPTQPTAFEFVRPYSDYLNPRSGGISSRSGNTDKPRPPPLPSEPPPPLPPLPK
# Chain of ALK4/ACVR1B (P36896 whole entry): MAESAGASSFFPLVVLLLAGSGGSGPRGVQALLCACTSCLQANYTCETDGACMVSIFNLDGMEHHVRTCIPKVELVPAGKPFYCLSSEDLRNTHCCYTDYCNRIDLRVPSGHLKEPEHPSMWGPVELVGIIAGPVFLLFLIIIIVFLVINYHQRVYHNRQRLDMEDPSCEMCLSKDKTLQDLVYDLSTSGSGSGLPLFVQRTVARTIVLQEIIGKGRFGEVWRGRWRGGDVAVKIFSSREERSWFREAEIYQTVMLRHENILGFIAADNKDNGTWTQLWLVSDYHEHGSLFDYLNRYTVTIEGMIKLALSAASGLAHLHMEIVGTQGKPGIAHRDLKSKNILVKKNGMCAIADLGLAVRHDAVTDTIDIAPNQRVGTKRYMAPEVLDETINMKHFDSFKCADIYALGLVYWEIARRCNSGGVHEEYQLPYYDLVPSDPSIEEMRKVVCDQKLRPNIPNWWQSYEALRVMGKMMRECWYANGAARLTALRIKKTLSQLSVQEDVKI
# Chain of EPHA3 (P29320 whole entry): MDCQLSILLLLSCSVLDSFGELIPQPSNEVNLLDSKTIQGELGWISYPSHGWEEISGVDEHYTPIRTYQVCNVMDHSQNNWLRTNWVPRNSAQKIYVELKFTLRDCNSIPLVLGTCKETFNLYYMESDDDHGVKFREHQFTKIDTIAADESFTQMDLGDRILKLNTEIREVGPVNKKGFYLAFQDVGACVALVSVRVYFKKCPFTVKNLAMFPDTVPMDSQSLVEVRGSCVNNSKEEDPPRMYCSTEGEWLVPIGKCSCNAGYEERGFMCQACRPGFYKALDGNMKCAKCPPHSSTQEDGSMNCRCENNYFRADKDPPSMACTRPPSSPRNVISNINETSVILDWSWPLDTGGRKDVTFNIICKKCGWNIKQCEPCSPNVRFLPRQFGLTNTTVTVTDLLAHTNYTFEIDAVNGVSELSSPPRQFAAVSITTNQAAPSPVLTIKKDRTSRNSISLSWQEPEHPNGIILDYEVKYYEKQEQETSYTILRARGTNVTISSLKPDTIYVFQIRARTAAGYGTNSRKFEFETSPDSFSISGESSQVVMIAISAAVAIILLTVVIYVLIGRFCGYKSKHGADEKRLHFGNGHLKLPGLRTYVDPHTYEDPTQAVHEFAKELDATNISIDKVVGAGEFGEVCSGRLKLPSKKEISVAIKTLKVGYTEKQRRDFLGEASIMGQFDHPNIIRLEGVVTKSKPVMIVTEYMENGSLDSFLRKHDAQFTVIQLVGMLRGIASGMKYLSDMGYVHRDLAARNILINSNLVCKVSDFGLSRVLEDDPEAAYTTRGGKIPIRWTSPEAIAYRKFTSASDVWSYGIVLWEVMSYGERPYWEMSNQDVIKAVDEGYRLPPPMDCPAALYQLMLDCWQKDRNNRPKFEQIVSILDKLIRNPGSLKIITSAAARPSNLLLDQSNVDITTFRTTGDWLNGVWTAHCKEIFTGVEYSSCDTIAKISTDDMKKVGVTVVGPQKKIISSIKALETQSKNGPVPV
# Chain of IKKb/IKBKB (O14920 whole entry): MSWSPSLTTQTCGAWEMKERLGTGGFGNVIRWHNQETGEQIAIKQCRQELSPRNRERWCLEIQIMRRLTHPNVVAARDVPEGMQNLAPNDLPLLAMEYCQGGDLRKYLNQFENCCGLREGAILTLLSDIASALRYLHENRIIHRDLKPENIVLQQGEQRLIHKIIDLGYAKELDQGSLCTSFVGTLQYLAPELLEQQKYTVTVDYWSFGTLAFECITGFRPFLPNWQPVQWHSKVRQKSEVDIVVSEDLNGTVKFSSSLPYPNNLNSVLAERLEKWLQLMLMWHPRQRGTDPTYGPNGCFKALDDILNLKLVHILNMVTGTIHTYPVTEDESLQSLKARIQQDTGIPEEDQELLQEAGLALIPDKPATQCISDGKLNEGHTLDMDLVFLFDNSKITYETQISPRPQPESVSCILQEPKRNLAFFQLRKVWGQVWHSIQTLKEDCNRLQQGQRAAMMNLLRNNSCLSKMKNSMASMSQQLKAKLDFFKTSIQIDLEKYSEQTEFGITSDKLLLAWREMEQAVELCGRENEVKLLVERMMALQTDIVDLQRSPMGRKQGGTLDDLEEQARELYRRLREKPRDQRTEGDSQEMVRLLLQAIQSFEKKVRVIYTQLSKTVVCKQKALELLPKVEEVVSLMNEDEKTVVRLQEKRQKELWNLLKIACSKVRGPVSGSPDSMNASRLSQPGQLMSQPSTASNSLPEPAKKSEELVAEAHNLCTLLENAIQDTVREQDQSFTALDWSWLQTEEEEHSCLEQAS
# T1 sequence (P27361 whole entry): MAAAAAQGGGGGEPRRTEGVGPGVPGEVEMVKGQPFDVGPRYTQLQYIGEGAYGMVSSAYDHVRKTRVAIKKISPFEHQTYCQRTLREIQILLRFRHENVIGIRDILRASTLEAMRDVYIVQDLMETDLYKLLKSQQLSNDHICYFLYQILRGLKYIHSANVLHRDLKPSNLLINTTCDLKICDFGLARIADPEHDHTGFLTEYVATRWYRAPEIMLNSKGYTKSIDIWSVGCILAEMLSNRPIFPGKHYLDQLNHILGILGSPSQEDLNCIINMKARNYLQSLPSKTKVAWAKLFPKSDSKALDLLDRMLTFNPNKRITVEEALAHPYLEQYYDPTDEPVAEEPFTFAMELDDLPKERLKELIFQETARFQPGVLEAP
# Chain of ERBB4/HER4 (Q15303 whole entry): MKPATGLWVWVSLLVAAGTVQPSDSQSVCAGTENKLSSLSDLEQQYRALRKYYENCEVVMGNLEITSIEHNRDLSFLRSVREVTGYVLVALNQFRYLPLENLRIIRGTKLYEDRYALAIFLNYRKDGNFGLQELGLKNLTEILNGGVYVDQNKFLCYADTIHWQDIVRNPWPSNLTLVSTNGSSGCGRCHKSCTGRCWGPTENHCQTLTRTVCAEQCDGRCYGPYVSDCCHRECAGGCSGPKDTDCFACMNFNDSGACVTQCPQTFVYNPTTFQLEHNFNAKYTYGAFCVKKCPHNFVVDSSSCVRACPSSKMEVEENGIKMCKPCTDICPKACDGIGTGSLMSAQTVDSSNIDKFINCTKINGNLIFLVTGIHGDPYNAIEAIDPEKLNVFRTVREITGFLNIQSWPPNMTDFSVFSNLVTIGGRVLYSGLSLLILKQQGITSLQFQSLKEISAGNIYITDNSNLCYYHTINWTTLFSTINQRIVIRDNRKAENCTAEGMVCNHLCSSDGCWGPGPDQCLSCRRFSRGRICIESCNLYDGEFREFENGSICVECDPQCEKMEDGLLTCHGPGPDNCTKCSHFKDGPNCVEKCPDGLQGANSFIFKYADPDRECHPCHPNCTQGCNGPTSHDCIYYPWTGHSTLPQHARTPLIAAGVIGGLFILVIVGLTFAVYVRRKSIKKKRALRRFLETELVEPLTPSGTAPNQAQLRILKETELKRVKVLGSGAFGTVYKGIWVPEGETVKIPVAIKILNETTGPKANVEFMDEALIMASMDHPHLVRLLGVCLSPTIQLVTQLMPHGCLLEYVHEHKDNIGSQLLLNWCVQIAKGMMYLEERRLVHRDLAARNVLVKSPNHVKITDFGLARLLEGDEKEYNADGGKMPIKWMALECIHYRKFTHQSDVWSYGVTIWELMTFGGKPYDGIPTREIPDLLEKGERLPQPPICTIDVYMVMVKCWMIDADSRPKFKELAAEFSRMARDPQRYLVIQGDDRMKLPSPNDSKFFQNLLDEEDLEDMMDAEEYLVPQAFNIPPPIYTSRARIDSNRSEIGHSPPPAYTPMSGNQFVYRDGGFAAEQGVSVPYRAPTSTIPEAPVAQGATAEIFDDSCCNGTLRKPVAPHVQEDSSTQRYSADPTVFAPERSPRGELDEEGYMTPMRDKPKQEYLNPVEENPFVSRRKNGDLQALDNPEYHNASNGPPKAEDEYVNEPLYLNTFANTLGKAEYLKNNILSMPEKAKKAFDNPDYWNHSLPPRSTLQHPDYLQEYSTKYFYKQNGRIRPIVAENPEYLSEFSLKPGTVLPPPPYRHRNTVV
compound,measurement,setting,value
COc1cc(N2CCN(C)CC2)c(C)cc1Nc1ncc(Br)c(Nc2cccnc2N(C)C)n1 [TP-5801],remaining activity at 0.3 µM,FYN; [1],108%
same,remaining activity at 0.3 µM,FYN; [2],105%
same,remaining activity at 0.3 µM,ALK3/BMPR1A; [1],105%
same,remaining activity at 0.3 µM,ALK3/BMPR1A; [2],100%
same,remaining activity at 0.3 µM,MYO3A; [1],69.8%
same,remaining activity at 0.3 µM,MYO3A; [2],66.3%
same,remaining activity at 0.3 µM,EPHA3; [1],103%
same,remaining activity at 0.3 µM,EPHA3; [2],97.5%
same,remaining activity at 0.3 µM,AKT1,105%
same,remaining activity at 0.3 µM,ERK1; [1],108%
same,remaining activity at 0.3 µM,ERK1; [2],107%
same,remaining activity at 0.3 µM,TTBK1; [1],97.2%
same,remaining activity at 0.3 µM,TTBK1; [2],94%
same,remaining activity at 0.3 µM,ALK4/ACVR1B; [1],86.9%
same,remaining activity at 0.3 µM,ALK4/ACVR1B; [2],85%
same,remaining activity at 0.3 µM,DMPK2,109%
same,remaining activity at 0.3 µM,ERK2/MAPK1; [1],87.1%
same,remaining activity at 0.3 µM,ERK2/MAPK1; [2],86.1%
same,remaining activity at 0.3 µM,MLK1/MAP3K9; [1],77.2%
same,remaining activity at 0.3 µM,MLK1/MAP3K9; [2],76.6%
same,remaining activity at 0.3 µM,NEK3; [1],89%
same,remaining activity at 0.3 µM,NEK3; [2],88%
same,remaining activity at 0.3 µM,CDK2/cyclin A1; [1],67.5%
same,remaining activity at 0.3 µM,CDK2/cyclin A1; [2],63.7%
same,remaining activity at 0.3 µM,ERBB4/HER4; [1],103%
same,remaining activity at 0.3 µM,ERBB4/HER4; [2],102%
same,remaining activity at 0.3 µM,CDK1/cyclin A; [1],102%
same,remaining activity at 0.3 µM,CDK1/cyclin A; [2],101%
same,remaining activity at 0.3 µM,IKKb/IKBKB; [1],104%
same,remaining activity at 0.3 µM,IKKb/IKBKB; [2],102%
same,remaining activity at 0.3 µM,PKG2/PRKG2,111%
same,remaining activity at 0.3 µM,MLK3/MAP3K11; [1],89.5%
same,remaining activity at 0.3 µM,MLK3/MAP3K11; [2],89.3%
same,remaining activity at 0.3 µM,FLT4/VEGFR3; [1],35.2%
same,remaining activity at 0.3 µM,FLT4/VEGFR3; [2],35.1%
same,remaining activity at 0.3 µM,CDK9/cyclin T1; [1],128%
same,remaining activity at 0.3 µM,CDK9/cyclin T1; [2],115%
